19 compounds from ChEMBL document CHEMBL1136294, “Aryloxazolidinediones: identification of potent orally active PPAR dual alpha/gamma agonists” (Bioorg Med Chem Lett, 2003) can be followed below.

Data set [1] concerns the target T1, Peroxisome proliferator-activated receptor delta (Homo sapiens, UniProt Q03181).
T1 sequence (Q03181 whole entry): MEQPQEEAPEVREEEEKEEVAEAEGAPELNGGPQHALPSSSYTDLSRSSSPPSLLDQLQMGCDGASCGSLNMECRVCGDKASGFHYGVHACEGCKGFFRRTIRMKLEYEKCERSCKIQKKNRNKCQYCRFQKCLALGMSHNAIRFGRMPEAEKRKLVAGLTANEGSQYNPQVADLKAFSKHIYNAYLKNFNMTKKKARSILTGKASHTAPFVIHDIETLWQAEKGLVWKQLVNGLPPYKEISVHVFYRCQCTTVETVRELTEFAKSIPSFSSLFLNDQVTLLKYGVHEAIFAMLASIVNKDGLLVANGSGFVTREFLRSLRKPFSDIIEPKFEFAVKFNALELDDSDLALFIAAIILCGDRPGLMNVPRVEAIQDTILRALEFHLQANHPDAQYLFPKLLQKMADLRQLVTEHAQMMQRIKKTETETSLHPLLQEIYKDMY
Description: In vitro binding affinity was tested towards human Peroxisome proliferator activated receptor delta

Data set [2] deals with T1, Peroxisome proliferator-activated receptor delta. It is filed as functional.
Description: In vitro activity in human Peroxisome proliferator activated receptor delta-transactivation assay
Data set [3] is filed under the species Rattus norvegicus. To be noted: in vivo.
Description: Area under curve in SD rats
Data set [4] in a line: in vivo. To be noted: Sprague-Dawley, rat, po, 2 mg/kg.
Description: Clearance in Sprague-Dawley rats after 2mg/kg oral dose
Data set [5] in a line: in vivo. To be noted: Sprague-Dawley, rat, po.
Description: Oral bioavailability in rat (Sprague-Dawley)
Data set [6] concerns the target T2, Peroxisome proliferator-activated receptor alpha (Homo sapiens, UniProt Q07869).
T2 sequence (Q07869 whole entry): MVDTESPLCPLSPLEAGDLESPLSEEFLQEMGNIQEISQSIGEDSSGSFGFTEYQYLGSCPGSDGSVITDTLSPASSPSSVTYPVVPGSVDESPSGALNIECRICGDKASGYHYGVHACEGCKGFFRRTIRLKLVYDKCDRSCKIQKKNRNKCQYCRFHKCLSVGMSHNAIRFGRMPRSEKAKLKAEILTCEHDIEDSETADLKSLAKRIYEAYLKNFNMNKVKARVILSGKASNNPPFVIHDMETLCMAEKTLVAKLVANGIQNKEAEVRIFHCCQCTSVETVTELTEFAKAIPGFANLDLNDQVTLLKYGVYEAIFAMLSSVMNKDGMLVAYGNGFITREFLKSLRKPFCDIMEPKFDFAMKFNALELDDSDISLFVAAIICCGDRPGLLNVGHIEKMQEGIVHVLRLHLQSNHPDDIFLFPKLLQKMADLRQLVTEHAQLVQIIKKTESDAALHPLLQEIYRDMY
Description: In vitro binding affinity was tested towards human Peroxisome proliferator activated receptor alpha

Data set [7] in a line: in vivo. To be noted: Sprague-Dawley, rat.
Description: Half life period in SD rats
In data set [8] the target is T2, Peroxisome proliferator-activated receptor alpha. Format: functional.
Description: In vitro activity in human Peroxisome proliferator activated receptor alpha-transactivation assay
For data set [9], the species on record is Rattus norvegicus. The following applies: in vivo, po.
Description: Area under curve for a 2-mpk po dose in SD rats

As usually defined, the IC50 is the concentration that gives 50% inhibition. On to `CCCc1cc(OC2CCCC2)ccc1OCCCOc1cccc(C2SC(=O)NC2=O)c1` (stereo unspecified), for which the IC50 in data set [1] amounted to 0.92 µM.
The EC50 is the concentration at which the effect is half-maximal. A high value points to weaker potency. As to `CCCc1cc(C2CCC(C)(C)CC2)ccc1OCCCOc1cccc(C2OC(=O)NC2=O)c1` (stereo unspecified), the EC50 in data set [2] was above 3 µM. This compound gave an IC50 in data set [1] above 50 µM.
On to `CCCc1cc(C2CCOCC2)ccc1OCCCOc1cccc(C2OC(=O)NC2=O)c1` (stereo unspecified), for which the IC50 in data set [1] is above 50 µM.
With `CCCc1cc(C(=O)c2ccccc2)ccc1OCCCOc1cccc(C2SC(=O)NC2=O)c1` (stereo unspecified), the half-maximal effective concentration (EC50) in [2] is above 3 µM. This compound also gave an IC50 in data set [1] of 0.17 µM.
`CCCc1cc(C2CCC(=O)CC2)ccc1OCCCOc1cccc(C2OC(=O)NC2=O)c1` (stereo unspecified) yielded an IC50 in [1] above 50 µM.
In data set [1], `CCCc1cc(-c2noc3ccccc23)ccc1OCCCOc1cccc(C2SC(=O)NC2=O)c1` (stereo unspecified) displayed an IC50 of 0.14 µM.
`CCCc1cc(CC2CCCCC2)ccc1OCCCOc1cccc(C2SC(=O)NC2=O)c1` (stereo unspecified) came in with an EC50 in [2] above 3 µM. In [1], this compound gave an IC50 above 50 µM.
Turning to `CCCc1cc(OC2CCCCCC2)ccc1OCCCOc1cccc(C2SC(=O)NC2=O)c1` (stereo unspecified), the IC50 in data set [1] is above 50 µM.
Turning to `CCCc1cc(C2CCCCC2)ccc1OCCCOc1cccc(C2OC(=O)NC2=O)c1` (stereo unspecified), the EC50 in [2] was above 3 µM. In addition, the IC50 in [1] is above 50 µM.
For `CCCc1cc(C2CCCCCC2)ccc1OCCCOc1cccc(C2OC(=O)NC2=O)c1` (stereo unspecified), in that order: above 3 µM and above 50 µM.
For orientation: CL/F means the apparent clearance, not corrected for the fraction that reaches the circulation. A word on the bioavailability: it is dose-corrected exposure relative to a reference, in per cent. The low end stands for poor availability, the high end for good availability. `CCCc1cc(C(=O)C2CCCCC2)ccc1OCCCOc1cccc(C2SC(=O)NC2=O)c1` (stereo unspecified) displayed a concentration for a half-maximal effect (EC50) in data set [2] above 3 µM. In [3], the AUC worked out at 0.07 µM. For the same compound, the IC50 in data set [1] is above 50 µM. The same compound gave a CL/F in data set [4] of 29.5 mL/min/kg. In [5], this compound registered a bioavailability of 7.8%.
In general, half-life refers to how long it takes for the measured level to halve. Take `CCCc1ccccc1OCCCOc1cccc(C2OC(=O)NC2=O)c1` (stereo unspecified): the results for the EC50 in [2] and in data set [8] were above 3 µM and 0.053 µM, respectively. For the same compound, the IC50 was 0.08 µM in data set [6] and above 5 µM in [1]. The same compound gave a half-life in [7] of 3.6 h. Further, the bioavailability in data set [5] is 27%. The same compound yielded an AUC in data set [9] of 1.1 µM.
In data set [1], `CCCc1cc(C2CCCC2)ccc1OCCCOc1cccc(C2OC(=O)NC2=O)c1` (stereo unspecified) showed an IC50 of 3.85 µM. This lies in the single-digit micromolar range.
As to `CCCc1cc(OC2CCCCC2)ccc1OCCCOc1cccc(C2SC(=O)NC2=O)c1` (stereo unspecified), in [2], the EC50 was above 3 µM. For the same compound, in [3], the AUC was found to be 0.3 µM. In [1], this compound displayed an IC50 above 50 µM. The compound also yielded a bioavailability in [5] of 10%.
In data set [2], `CCCc1cc(-c2ccccc2)ccc1OCCCOc1cccc(C2OC(=O)NC2=O)c1` (stereo unspecified) gave an EC50 above 3 µM. In [1], the IC50 worked out at 1.51 µM.
The compound `CCCc1cc(C2CCC(F)(F)CC2)ccc1OCCCOc1cccc(C2OC(=O)NC2=O)c1` (stereo unspecified) displayed an EC50 in [2] above 3 µM. For the same compound, the IC50 in data set [1] was above 50 µM.
For `CCCc1cc(C=C2CCCCC2)ccc1OCCCOc1cccc(C2SC(=O)NC2=O)c1` (stereo unspecified), in that order: above 3 µM and above 50 µM.
`CCCc1cc(C2CCC(O)CC2)ccc1OCCCOc1cccc(C2OC(=O)NC2=O)c1` (stereo unspecified): the IC50 in [1] is above 50 µM.
Compound `CCCc1cc(C(=O)c2ccc(Cl)cc2)ccc1OCCCOc1cccc(C2SC(=O)NC2=O)c1` (stereo unspecified) displayed an EC50 in data set [2] above 3 µM. The compound further yielded an IC50 in [1] above 50 µM.
